The results in this text go back to patent publication US11006626B2, “Compounds for protection of cells” (Sulfateq B.V., priority 2012, dated 2021).

Molecules are shown by their SMILES.

Experiment [1] relates to Human Embryo Kidney (HEK) 293 cells. Put plainly: Hypothermia/rewarming injury of HEK cells, trypan blue viability count. The format is cell-based. The note with it: for viability at 0.01 µM / viability at 0.1 µM / viability at 1 µM / viability at 10 µM / viability at 100 µM / viability at 1000 µM: Homo sapiens, HEK293, 24 h, read-out: % cells that survived; for viability at 0.01 µM / viability at 0.1 µM / viability at 1 µM / viability at 10 µM / viability at 100 µM / viability at 1000 µM / % cells that survived: 24 h at 4° C., 24 h rewarming; for % cells that survived, Mean: mean over the tested concentrations.
Description: Human Embryo Kidney (HEK) 293 cells were cultured in DMEM cell culture medium (Life Technologies, 41965-052) supplemented with fetal calf serum, penicillin and streptomycin. Cells were seeded at a density of 0.8-1.2E6 mL-1 in 25 cm2 polystyrene flasks, placed in a 37° C.
The compounds were dissolved in dimethyl sulfoxide (DMSO) to several concentrations. Before commencing experiments, this stock solution was dissolved in pre-warmed DMEM and further diluted to obtain a concentration range from 10 nM-1 mM. Cell culture medium was then replaced by these dilutions and cells were incubated in the presence of the compound for 1 hour. After incubation, lids were closed tightly and flasks were placed in a 4° C. room and cooled for 24 hours. After this cooling period, cells were placed back in the 37° C. incubator with lids closed and were allowed to rewarm for another 24 hours.
After this rewarming period, microscopic images were taken to assess cell morphology (Nikon D5100, Nikon Diaphot-TMD). Cell culture medium was collected and centrifuged (4 minutes, 2000 rpm). The supernatant was collected and pH was immediately measured to prevent equilibration of the pH by the carbonate buffer in the medium, while the pelleted cells were resuspended in 5 mL of PBS. Cells remaining in the flask were washed twice with phosphate buffered saline (PBS) while the washing product was discarded. Subsequently, the cells were trypsinized by addition of 0.5 mL of trypsine and pooled with the resuspended pellet. This cell suspension was then stained at a final concentration of 0.2% trypan blue (Sigma, T8154), followed by manual assessment of viability and cell number on a Bürker-Türk hemocytometer. To conclude the assay, cell culture medium glucose levels were measured (Roche Accutrend Plus) as an indication of metabolic activity. All of these steps were performed with care to prevent mechanical stress to influence or alter the viability of the cells after cooling.
The amount represents the % cells that survived. […] In the control, the same procedure was applied to two badges of HEK cells.

Experiment [2] has as its system blood platelets. Put plainly: Cold storage of PRP blood platelets, aggregation of thrombocytes after storage. It counts as cell-based. The note with it: 30 mM; PRP platelets stored at 4° C.; 264 hours. Further details: key: − means that most of the thrombocytes were aggregated; a + indicates that a few cells were still viable but some cells aggregated; a ++ indicates that almost all cells were viable. The protocol:
PRP platelets were harvested and 2.1 ml was suspended in Poly Propylene tubes of 5 ml, closed with a stop.
Several compounds according to the invention were added to the blood platelets directly after preparing the PRP plasma and incubated during 10 minutes at 37° C. or 30 minutes at room temperature. The blood platelets with the compound were then stored at 4° C.
A control was stored under shaking conditions at room temperature. Another control was stored at 4° C. without the addition of a compound.
A sample was taken out of each tube after 264 hours after addition of the compound and tested as follows: • The color and coagulation properties were visually analysed. • The thrombocyte cells that survived were counted and it was evaluated whether the thrombocytes were aggregated. • It was evaluated if the thrombocytes still were able to function after stimulation by the addition of ADP or under influence of collagen in a 96 well plate. • The adhesion was evaluated, meaning the ability of the platelets to bind collagen in a 6 well plate preincubated with collagen. • Via an ELISA assay, it was evaluated whether thromboxane was secreted from the platelets. Thromboxane facilitates aggregation and is produced by activated blood platelets.
Table 3 provides an overview of the results of the addition of the compounds to the blood platelets and evaluates the aggregation of the thrombocytes after addition of the compound according to the invention and cooling until 4° C.

As to `Cc1c(C)c2c(c(C)c1O)CCC(C)(C(=O)N1CCC[C@H]1C(=O)O)O2` (mixture of isomers) [SUL - 143, (2S)-1-(6-hydroxy-2,5,7,8-tetramethylchroman-2-carbonyl)pyrrolidine-2-carboxylic acid], the viability at 0.01 µM in experiment [1] (10 nM) turned out to be 30.6%. The viability at 0.1 µM in experiment [1] (100 nM) stood at 35%. In addition, the viability at 1 µM in experiment [1] (1 μM) was found to be 14.9%. For the same compound, the viability at 10 µM in experiment [1] (10 μM) turned out to be 49.5%. Besides, the viability at 100 µM in experiment [1] (100 μM) worked out at 97.8%. For the same compound, in experiment [1] (1 mM), the viability at 1000 µM was found to be 98.4%. For the same compound, the “% cells that survived, Mean” value in experiment [1] amounted to 54%. In addition, the “Aggregation of blood platelets after storage” value (“Aggregation of blood platelets” for short) in experiment [2] is recorded as “+”.

`Cc1c2c(c(C(C)C)c(O)c1C(C)C)CCC(C)(C(=O)N1CCN(CC(=O)O)CC1)O2` (stereo not drawn) [SUL - 139, 2-(4-(6-hydroxy-5,7-diisopropyl-2,8-dimethylchroman-2-carbonyl)piperazin-1-yl)acetic acid]: the viability at 0.01 µM in experiment [1] (10 nM) was found to be 13.3%. Further, the viability at 0.1 µM in experiment [1] (100 nM) worked out at 4.57%. Also, in experiment [1] (1 μM), the viability at 1 µM worked out at 4.26%. In experiment [1] (10 μM), the viability at 10 µM amounted to 90%. For the same compound, the viability at 100 µM in experiment [1] (100 μM) is 89.7%. Also, the viability at 1000 µM in experiment [1] (1 mM) came to 80.3%. The “% cells that survived, Mean” value in experiment [1] was determined as 47%. Further, in experiment [2], the “Aggregation of blood platelets” value is listed as “+”.

For `Cc1c(C)c2c(c(C)c1O)CC[C@@](C)(C(=O)N1CCN(CC(=O)O)CC1)O2` [SUL - 141, (S)-2-(4-(6-hydroxy-2,5,7,8-tetramethylchroman-2-carbonyl)piperazin-1-yl)acetic acid], in experiment [1] (10 nM), the viability at 0.01 µM is 58.5%. In experiment [1] (100 nM), the viability at 0.1 µM is 96.2%. Moreover, the viability at 1 µM in experiment [1] (1 μM) was 0.75%. Also, in experiment [1] (10 μM), the viability at 10 µM is 99.4%. Besides, the viability at 100 µM in experiment [1] (100 μM) came out at 96.8%. Moreover, in experiment [1] (1 mM), the viability at 1000 µM was 99.1%. The “% cells that survived, Mean” value in experiment [1] was determined as 75%. In experiment [2], the “Aggregation of blood platelets” value is given as “+”.

Regarding `Cc1c(C)c2c(c(C)c1O)CC[C@](C)(C(=O)NO)O2` [SUL - 125, (R)-N,6-dihydroxy-2,5,7,8-tetramethylchroman-2-carboxamide], the viability at 0.01 µM in experiment [1] (10 nM) turned out to be 8.09%. The viability at 0.1 µM in experiment [1] (100 nM) is 0%. The viability at 1 µM in experiment [1] (1 μM) turned out to be 97.3%. Further, the viability at 10 µM in experiment [1] (10 μM) came to 96.7%. Also, in experiment [1] (100 μM), the viability at 100 µM amounted to 88.4%. Besides, in experiment [1] (1 mM), the viability at 1000 µM came to 22.5%. In experiment [1], the “% cells that survived, Mean” value came out at 52%. Also, the “Aggregation of blood platelets” value in experiment [2] was “+”.

In the case of `Cc1c(C)c2c(c(C)c1O)CC[C@@](C)(C(=O)NO)O2` [SUL - 126, (S)-N,6-dihydroxy-2,5,7,8-tetramethylchroman-2-carboxamide], in experiment [1] (10 nM), the viability at 0.01 µM amounted to 0%. Moreover, in experiment [1] (100 nM), the viability at 0.1 µM came out at 0%. Moreover, the viability at 1 µM in experiment [1] (1 μM) was found to be 68.1%. For the same compound, the viability at 10 µM in experiment [1] (10 μM) came to 92.7%. Further, the viability at 100 µM in experiment [1] (100 μM) turned out to be 98.6%. In addition, the viability at 1000 µM in experiment [1] (1 mM) came out at 80.2%. Further, in experiment [1], the “% cells that survived, Mean” value was 57%. The “Aggregation of blood platelets” value in experiment [2] is recorded as “+”.

Consider `CNCCNC(=O)C1(C)CCc2c(C)c(O)c(C)c(C)c2O1` (stereo not drawn) [SUL - 100, 6-hydroxy-2,5,7,8-tetramethyl-N-(2-(methylamino)ethyl)chroman-2-carboxamide], for which the viability at 0.01 µM in experiment [1] (10 nM) is 77.8%. The viability at 0.1 µM in experiment [1] (100 nM) stood at 76.9%. Also, in experiment [1] (1 μM), the viability at 1 µM worked out at 63.2%. Moreover, the viability at 10 µM in experiment [1] (10 μM) was determined as 68.8%. Besides, the viability at 100 µM in experiment [1] (100 μM) is 55.6%. Besides, in experiment [1] (1 mM), the viability at 1000 µM was 0%. The “% cells that survived, Mean” value in experiment [1] is recorded as 57%. For the same compound, the “Aggregation of blood platelets” value in experiment [2] is given as “+”.

Turning to `Cc1c(C)c2c(c(C)c1O)CCC(C)(C(=O)N1CCNCC1)O2` (stereo not drawn) [SUL - 121, (6-hydroxy-2,5,7,8-tetramethylchroman-2-yl)(piperazin-1-yl)methanone], in experiment [1] (10 nM), the viability at 0.01 µM worked out at 87.3%. For the same compound, the viability at 0.1 µM in experiment [1] (100 nM) was 89%. Also, the viability at 1 µM in experiment [1] (1 μM) turned out to be 94.8%. Further, in experiment [1] (10 μM), the viability at 10 µM came to 88.9%. Besides, the viability at 100 µM in experiment [1] (100 μM) came out at 92.7%. In addition, the viability at 1000 µM in experiment [1] (1 mM) was determined as 0%. Also, the “% cells that survived, Mean” value in experiment [1] was determined as 75%. For the same compound, the “Aggregation of blood platelets” value in experiment [2] is on record as “+”.

Turning to `Cc1c(C)c2c(c(C)c1O)CCC(C)(C(=O)N1CCN(CCO)CC1)O2` (stereo not drawn) [SUL - 138, (6-hydroxy-2,5,7,8-tetramethylchroman-2-yl)(4-(2-hydroxyethyl)piperazin-1-yl)methanone], the “% cells that survived” value in experiment [1] (10 nM) came out at 92.84%; in experiment [1] (100 nM), 91.74%; in experiment [1] (1 μM), 77.01%; in experiment [1] (10 μM), 91.71%; in experiment [1] (100 μM), 93.30%; in experiment [1] (1 mM), 86.94%. Also, the “% cells that survived, Mean” value in experiment [1] was 89%. The “Aggregation of blood platelets” value in experiment [2] is recorded as “+”.

As to `Cc1c2c(c(C(C)C)c(O)c1C(C)C)CCC(C)(C(=O)O)O2` (stereo not drawn) [SUL - 118, 6-hydroxy-5,7-diisopropyl-2,8-dimethylchroman-2-carboxylic acid], the viability at 0.01 µM in experiment [1] (10 nM) worked out at 13.7%. Also, in experiment [1] (100 nM), the viability at 0.1 µM is 45.7%. Further, the viability at 1 µM in experiment [1] (1 μM) stood at 36.2%. Also, the viability at 10 µM in experiment [1] (10 μM) worked out at 52.9%. In experiment [1] (100 μM), the viability at 100 µM amounted to 88.5%. The viability at 1000 µM in experiment [1] (1 mM) came out at 92.5%. Also, in experiment [1], the “% cells that survived, Mean” value is 55%. Also, the “Aggregation of blood platelets” value in experiment [2] is recorded as “+”.

For the compound `Cc1c(C)c2c(c(C)c1O)CC[C@](C)(C(=O)N1CCN(CC(=O)O)CC1)O2` [SUL - 142, (R)-2-(4-(6-hydroxy-2,5,7,8-tetramethylchroman-2-carbonyl)piperazin-1-yl)acetic acid], the viability at 0.01 µM in experiment [1] (10 nM) amounted to 0%. Further, the viability at 0.1 µM in experiment [1] (100 nM) is 73%. Besides, the viability at 1 µM in experiment [1] (1 μM) was 98.5%. Besides, the viability at 10 µM in experiment [1] (10 μM) was found to be 99.2%. Further, the viability at 100 µM in experiment [1] (100 μM) was 99.4%. Also, the viability at 1000 µM in experiment [1] (1 mM) was found to be 91.9%. In experiment [1], the “% cells that survived, Mean” value came to 77%. Further, in experiment [2], the “Aggregation of blood platelets” value is recorded as “++”.

For `Cc1c(C)c2c(c(C)c1O)CCC(C)(C(=O)N1CCN(CCO)CC1)O2` (stereo not drawn) [SUL - 132, (6-hydroxy-2,5,7,8-tetramethylchroman-2-yl)(4-(2-hydroxyethyl)piperazin-1-yl)methanone], the “% cells that survived” value in experiment [1] (10 nM) came out at 93.96%; in experiment [1] (100 nM), 91.41%; in experiment [1] (1 μM), 88.30%; in experiment [1] (10 μM), 91.11%; in experiment [1] (100 μM), 89.73%; in experiment [1] (1 mM), 80.51%. Also, the “% cells that survived, Mean” value in experiment [1] came to 89%. The “Aggregation of blood platelets” value in experiment [2] is recorded as “+”.

Consider `CCCCNCC1(C)CCc2c(C)c(O)c(C)c(C)c2O1` (stereo not drawn) [SUL - 117, 2-((butylamino)methyl)-2,5,7,8-tetramethylchroman-6-ol], for which, in experiment [1] (10 nM), the viability at 0.01 µM is 0.72%. Also, in experiment [1] (100 nM), the viability at 0.1 µM turned out to be 89.3%. The viability at 1 µM in experiment [1] (1 μM) turned out to be 93.6%. Moreover, in experiment [1] (10 μM), the viability at 10 µM amounted to 84.8%. The viability at 100 µM in experiment [1] (100 μM) is 90.1%. Further, the viability at 1000 µM in experiment [1] (1 mM) worked out at 0%. Further, the “% cells that survived, Mean” value in experiment [1] stood at 60%. Besides, the “Aggregation of blood platelets” value in experiment [2] is “+”.
